System: IL1-β release upon NLRP3 activation in peripheral blood mononuclear cells (PBMC)
Test: PBMC IC50 determination assay (IL1-β release, ELISA)
Type: cell-based
Conditions: Homo sapiens, PBMC, read-out: PBMCs, IC50, µM
Experimental: PBMC IC50 determination assay
The compounds of the present invention were tested for their inhibitory activity against IL1-β release upon NLRP3 activation in peripheral blood mononuclear cells (PBMC).
PBMC were isolated from buffy coats by density gradient centrifugation on Histopaque-1077 (Sigma, cat no. 10771). Isolated cells were seeded into the wells of a 96-well plate and incubated for 3 h with lipopolysaccharide (LPS). Following medium exchange, the compounds of the present invention were added (a single compound per well) and the cells were incubated for 30 min. Next, the cells were stimulated with nigericin (10 µM) for 1 h and the cell culture media from the wells were collected for further analysis.
The release of IL1-β into the media was determined by a quantitative detection of IL1-β in the media using an IL-1β enzyme-linked immunosorbent assay (ELISA) Ready-SET-Go!, eBioscience cat. No. 88-7261-88. Briefly, in a first step, high affinity binding plates (Coming, Costar 9018 or NUNC Maxisorp Cat No. 44-2404) were coated overnight at 4°C with specific capture antibody included in the kit (anti-human IL-1β ref. 14-7018-68). Subsequently, plates were blocked with blocking buffer for 1 h at room temperature (rt) and after washing with a buffer (PBS with 0,05% Tween-20) incubated with protein standard and culture media. After 2 h of incubation at rt, plates were washed and incubated with biotinylated detection antibody included in the kit (anti-human IL-1β Biotin ref. 33-7110-68) for 1 h at rt. Plates were washed and incubated with HRP-streptavidin for 30 min at rt and washed again. The signal was developed after addition of 3,39,5,59-tetramethylbenzidine-peroxidase (TMB) until color appeared and the reaction was stopped by 2 N H2SO4. A microplate spectrophotometer (BioTek) was used to detect signals with […]. The detection range of IL1-β ELISA was […].

Compound | IC50 [µM]
O=C(Nc1c2c(cc3c1CCC3)CCC2)NS(=O)(=O)n1ccc2ccccc21 [Example 1A] | 1.05
CC(=O)c1ccn(S(=O)(=O)NC(=O)Nc2c3c(cc4c2CCC4)CCC3)c1 [Example 1B] | 1.27
COC(=O)c1ccn(S(=O)(=O)NC(=O)Nc2c3c(cc4c2CCC4)CCC3)c1 [Example 1C] | 4.07
O=C(Nc1c2c(cc3c1CCC3)CCC2)NS(=O)(=O)n1ccc2ncccc21 [Example 1D] | 10.5
O=C(Nc1c2c(cc3c1CCC3)CCC2)NS(=O)(=O)n1ncc2ccccc21 [Example 1E] | 1
O=C(Nc1c2c(cc3c1CCC3)CCC2)NS(=O)(=O)n1ccc(C2CC2)c1 [Example 1F] | 0.4
CCC(=O)c1ccn(S(=O)(=O)NC(=O)Nc2c3c(cc4c2CCC4)CCC3)c1 [Example 1G] | 5
O=C(Nc1c2c(cc3c1CCC3)CCC2)NS(=O)(=O)n1ccc2ccncc21 [Example 1H] | 4.93
CC(=O)c1ccn(S(=O)(=O)NC(=O)Nc2c3c(c(Cl)c4c2CCC4)CCC3)c1 [Example 1I] | 0.91
O=C(Nc1c2c(cc3c1CCC3)CCC2)NS(=O)(=O)n1ccc([N+](=O)[O-])c1 [Example 1J] | 26.8
O=C(Nc1c2c(cc3c1CCC3)CCC2)NS(=O)(=O)n1cccc1 [Example 1K] | 1.4
O=C(Nc1c2c(cc3c1CCC3)CCC2)NS(=O)(=O)n1ccc(C(=O)C(F)(F)F)c1 [Example 1L] | 0.074
O=C(Nc1c2c(cc3c1CCC3)CCCC2)NS(=O)(=O)n1ncc2ccccc21 [Example 1M] | 4.62
O=C(Nc1cc2c(c3c1CCCC3)CCC2)NS(=O)(=O)n1ncc2ccccc21 [Example 1N, 3-{1H,2H,3H,6H,7H,8H,9H -cyclopenta[a]naphthalen-5-yl}-1-(H-indazole-1-sulfonyl)-1-sodiourea] | 2.03
O=C(Nc1c2c(cc3c1CCC3)CCC2)NS(=O)(=O)n1cc2c(c1)C(=O)CC2 [Example 1O] | 4.13
O=C(Nc1c2c(cc3c1CCC3)CCC2)NS(=O)(=O)n1ccc(C(=O)c2ccccc2)c1 [Example 1P] | 2.91
O=C(Nc1cc2c(c3c1CCC3)CCC2)NS(=O)(=O)n1ccc(C(=O)C(F)(F)F)c1 [Example 1Q] | 0.33
CC(=O)c1cn(S(=O)(=O)NC(=O)Nc2c3c(cc4c2CCC4)CCC3)cc1-c1ccccc1 [Example 1T, 3=[(3-acetyl-4-phenyl-1H-pyrrol-1-yl)sulfonyl]-1-(1,2,3,5,6,7-hexahydro-s-indacen-4-yl)-3-sodiourea propan-2-ol solvate] | 4.76
CC(C)(O)c1ccn(S(=O)(=O)NC(=O)Nc2c3c(cc4c2CCC4)CCC3)c1 [Example 3A] | 0.66

Same assay, conditions: Homo sapiens; PBMC primed 3 h with LPS, compound 30 min, nigericin (10 µM) 1 h; IL1-β in media by ELISA; values with * are mean values based on 2-6 measurements, all others single measurements; read-out: PBMCs, IC50

Compound | IC50 [µM]
O=C(Nc1c2c(cc3c1CCC3)CCC2)NS(=O)(=O)n1cc2c(c1)C(=O)CCC2 [Example 1R, ammonium [(1,2,3,5,6,7-hexahydro-s-indacen-4-yl)carbamoyl][(4-oxo-4,5,6,7-tetrahydro-2H-isoindol-2-yl)sulfonyl]azanide] | 1.27
Cc1cccn1S(=O)(=O)NC(=O)Nc1c2c(cc3c1CCC3)CCC2 [Example 1S, ammonium [(1,2,3,5,6,7-hexahydro-s-indacen-4-yl)carbamoyl][(2-methyl-1H-pyrrol-1-yl)sulfonyl]azanide] | 0.27
O=C(Nc1cc2c(c3c1CCC3)CCC2=O)NS(=O)(=O)n1ccc(C(=O)C(F)(F)F)c1 [Example 1U, ammonium [(6-oxo-1,2,3,6,7,8-hexahydroas-indacen-4-yl)carbamoyl]({[3-(trifluoroacetyl)-1H-pyrrol-1-yl]sulfonyl})azanide] | 1.82
CC(O)c1ccn(S(=O)(=O)NC(=O)Nc2c3c(cc4c2CCC4)CCC3)c1 (stereo not shown) [Example 2A, 3-(1,2,3,5,6,7-hexahydro-s-indacen-4-yl)-1-{[3-(1-hydroxyethyl)-1H-pyrrol-1-yl]sulfonyl}urea] | 1.97
O=C(Nc1c2c(cc3c1CCC3)CCC2)NS(=O)(=O)n1ccc(C(O)C(F)(F)F)c1 (stereo not shown) [Example 2B, 3-(1,2,3,5,6,7-hexahydro-s-indacen-4-yl)-1-{[3-(2,2,2-trifluoro-1-hydroxyethyl)-1H-pyrrol-1-yl]sulfonyl}urea] | 0.98
C=C(C)c1ccn(S(=O)(=O)NC(=O)Nc2c3c(cc4c2CCC4)CCC3)c1 [Example 4A, 3-(1,2,3,5,6,7-hexahydro-s-indacen-4-yl)-1-{[3-(prop-1-en-2-yl)-1H-pyrrol-1-yl]sulfonyl}urea] | 0.81

Source: patent EP3272739A1 (NodThera Limited, priority 2016, dated 2018)
